# Results as given in ChEMBL document CHEMBL1149076, “Sulfamides as novel histone deacetylase inhibitors” (Bioorg Med Chem Lett, 2009).
# Calls of active or inactive are those of the source. No cut-off for these calls is given here.
# Tests used:
# [1] = target: T1, Protein deacetylase HDAC6 (Homo sapiens, UniProt Q9UBN7); test: Inhibition of human recombinant N-terminal histidine-tagged HDAC6 expressed in baculovirus by fluorimetry
# T1 sequence (Q9UBN7 whole entry): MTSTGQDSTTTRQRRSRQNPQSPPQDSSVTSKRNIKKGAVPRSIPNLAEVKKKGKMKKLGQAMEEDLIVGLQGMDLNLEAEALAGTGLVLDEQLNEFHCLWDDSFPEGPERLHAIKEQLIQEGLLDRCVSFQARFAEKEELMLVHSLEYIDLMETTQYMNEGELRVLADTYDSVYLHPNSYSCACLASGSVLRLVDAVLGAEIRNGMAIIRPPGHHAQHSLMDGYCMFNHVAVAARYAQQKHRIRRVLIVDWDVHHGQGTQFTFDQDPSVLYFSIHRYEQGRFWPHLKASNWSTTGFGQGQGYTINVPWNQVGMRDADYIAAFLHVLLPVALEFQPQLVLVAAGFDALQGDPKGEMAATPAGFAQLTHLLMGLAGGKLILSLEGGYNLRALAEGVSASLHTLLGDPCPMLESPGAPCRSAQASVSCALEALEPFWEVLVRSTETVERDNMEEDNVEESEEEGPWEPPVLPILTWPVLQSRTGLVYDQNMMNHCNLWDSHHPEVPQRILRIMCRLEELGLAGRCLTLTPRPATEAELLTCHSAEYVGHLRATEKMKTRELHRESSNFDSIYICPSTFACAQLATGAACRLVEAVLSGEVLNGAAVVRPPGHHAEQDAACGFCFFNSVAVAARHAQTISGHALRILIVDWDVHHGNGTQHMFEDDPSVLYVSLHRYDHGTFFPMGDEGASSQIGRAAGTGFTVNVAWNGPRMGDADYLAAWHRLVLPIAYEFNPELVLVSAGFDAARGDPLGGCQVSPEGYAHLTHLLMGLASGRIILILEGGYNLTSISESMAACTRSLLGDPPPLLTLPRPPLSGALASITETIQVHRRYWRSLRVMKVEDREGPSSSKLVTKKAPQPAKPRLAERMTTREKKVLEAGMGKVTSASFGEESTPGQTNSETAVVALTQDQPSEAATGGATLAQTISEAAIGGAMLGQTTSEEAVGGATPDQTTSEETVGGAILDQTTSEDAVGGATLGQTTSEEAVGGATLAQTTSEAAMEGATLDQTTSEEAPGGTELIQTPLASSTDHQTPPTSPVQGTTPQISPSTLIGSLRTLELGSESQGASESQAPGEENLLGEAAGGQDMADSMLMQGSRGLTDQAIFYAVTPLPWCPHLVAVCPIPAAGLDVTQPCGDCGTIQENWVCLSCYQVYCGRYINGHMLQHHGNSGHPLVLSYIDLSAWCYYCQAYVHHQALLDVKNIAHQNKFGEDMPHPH
# [2] = target: Histone deacetylase 2 (Homo sapiens) (UniProt Q92769); test: Inhibition of human recombinant C-terminal FLAG-tagged HDAC2 expressed in baculovirus by fluorimetry
# Histone deacetylase 1 [3] = target: T2, Histone deacetylase 1 (Homo sapiens, UniProt Q13547); test: Inhibition of human recombinant C-terminal FLAG-tagged HDAC1 expressed in baculovirus by fluorimetry
# [4] = target: T3, Histone deacetylase 7 (Homo sapiens) (UniProt Q8WUI4); test: Inhibition of human recombinant N-terminal histidine-tagged HDAC7 expressed in baculovirus by fluorimetry
# T3 sequence (whole entry): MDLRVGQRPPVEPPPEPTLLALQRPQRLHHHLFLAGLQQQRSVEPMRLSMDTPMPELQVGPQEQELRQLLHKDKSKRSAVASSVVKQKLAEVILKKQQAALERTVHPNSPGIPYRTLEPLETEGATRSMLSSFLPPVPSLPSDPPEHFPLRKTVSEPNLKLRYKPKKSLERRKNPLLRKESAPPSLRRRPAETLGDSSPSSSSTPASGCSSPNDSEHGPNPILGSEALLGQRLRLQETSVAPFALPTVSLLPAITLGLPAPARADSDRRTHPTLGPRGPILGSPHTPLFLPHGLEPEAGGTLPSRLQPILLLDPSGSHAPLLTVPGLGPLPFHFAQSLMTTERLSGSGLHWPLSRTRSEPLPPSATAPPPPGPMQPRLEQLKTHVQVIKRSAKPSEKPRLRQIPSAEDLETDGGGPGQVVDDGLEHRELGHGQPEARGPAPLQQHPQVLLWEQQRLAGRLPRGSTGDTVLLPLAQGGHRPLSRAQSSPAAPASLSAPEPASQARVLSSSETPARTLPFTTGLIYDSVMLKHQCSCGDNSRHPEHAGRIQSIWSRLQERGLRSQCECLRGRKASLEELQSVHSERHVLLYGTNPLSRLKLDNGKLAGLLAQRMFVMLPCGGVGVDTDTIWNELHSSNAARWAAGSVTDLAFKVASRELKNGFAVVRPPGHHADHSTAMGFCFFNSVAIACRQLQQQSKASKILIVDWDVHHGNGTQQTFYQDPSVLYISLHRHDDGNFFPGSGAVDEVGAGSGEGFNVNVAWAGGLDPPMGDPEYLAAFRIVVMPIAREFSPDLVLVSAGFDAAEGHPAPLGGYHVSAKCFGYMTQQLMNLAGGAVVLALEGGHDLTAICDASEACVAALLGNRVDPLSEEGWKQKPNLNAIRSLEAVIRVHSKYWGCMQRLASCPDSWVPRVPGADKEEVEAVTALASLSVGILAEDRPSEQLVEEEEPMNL
# [5] = target: T4, Histone deacetylase 8 (Homo sapiens) (UniProt Q9BY41); test: Inhibition of human recombinant N-terminal histidine-tagged HDAC8 expressed in baculovirus by fluorimetry
# T4 sequence (whole entry): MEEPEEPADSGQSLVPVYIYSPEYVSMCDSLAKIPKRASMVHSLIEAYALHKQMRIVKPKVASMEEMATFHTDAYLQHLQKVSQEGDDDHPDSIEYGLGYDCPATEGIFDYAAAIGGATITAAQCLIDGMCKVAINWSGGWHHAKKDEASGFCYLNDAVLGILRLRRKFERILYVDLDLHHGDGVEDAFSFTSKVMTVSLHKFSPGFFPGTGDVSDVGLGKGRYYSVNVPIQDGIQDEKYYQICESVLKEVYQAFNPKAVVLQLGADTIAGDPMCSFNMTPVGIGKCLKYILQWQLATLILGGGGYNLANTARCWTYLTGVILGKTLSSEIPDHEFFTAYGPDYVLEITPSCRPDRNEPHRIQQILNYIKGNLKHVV
# [6] = target: Histone deacetylase 5 (Homo sapiens) (UniProt Q9UQL6); test: Inhibition of human recombinant N-terminal histidine-tagged HDAC5 expressed in baculovirus by fluorimetry
# [7] = target: Histone deacetylase 3 (Homo sapiens) (UniProt O15379); test: Inhibition of human recombinant C-terminal FLAG-tagged HDAC3 expressed in baculovirus by fluorimetry
# [8] = target: Histone deacetylase 4 (Homo sapiens) (UniProt P56524); test: Inhibition of human recombinant N-terminal histidine-tagged HDAC4 expressed in baculovirus by fluorimetry
# Histone deacetylase 1 [9] = target: T2, Histone deacetylase 1; test: Inhibition of HDAC1 in human 293T cells after 16 hrs by fluorimetry; assay type: cell-based
# T-24 [10] = test: Induction of alpha tubulin acetylation in human T24 cells after 3 hrs by ELISA; assay type: functional, cell-based; conditions: T-24, 3 h
# T-24 [11] = test: Induction of histone H3 acetylation in human T24 cells after 3 hrs by ELISA; assay type: functional, cell-based; conditions: T-24, 3 h
# T2 sequence (Q13547 whole entry): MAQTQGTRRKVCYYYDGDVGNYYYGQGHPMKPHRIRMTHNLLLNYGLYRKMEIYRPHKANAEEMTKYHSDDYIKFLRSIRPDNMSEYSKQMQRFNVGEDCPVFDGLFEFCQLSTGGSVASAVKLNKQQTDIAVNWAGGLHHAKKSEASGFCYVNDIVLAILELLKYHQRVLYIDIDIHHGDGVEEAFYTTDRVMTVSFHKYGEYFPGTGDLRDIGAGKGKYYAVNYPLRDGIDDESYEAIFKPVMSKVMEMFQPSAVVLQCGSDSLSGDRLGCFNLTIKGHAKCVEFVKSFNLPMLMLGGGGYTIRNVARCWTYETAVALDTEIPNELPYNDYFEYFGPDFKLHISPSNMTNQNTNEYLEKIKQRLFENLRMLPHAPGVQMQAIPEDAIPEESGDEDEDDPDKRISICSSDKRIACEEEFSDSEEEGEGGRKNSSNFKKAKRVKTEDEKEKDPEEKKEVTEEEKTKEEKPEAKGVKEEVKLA
# Histone deacetylase 2 (Homo sapiens), sequence (Q92769 whole entry): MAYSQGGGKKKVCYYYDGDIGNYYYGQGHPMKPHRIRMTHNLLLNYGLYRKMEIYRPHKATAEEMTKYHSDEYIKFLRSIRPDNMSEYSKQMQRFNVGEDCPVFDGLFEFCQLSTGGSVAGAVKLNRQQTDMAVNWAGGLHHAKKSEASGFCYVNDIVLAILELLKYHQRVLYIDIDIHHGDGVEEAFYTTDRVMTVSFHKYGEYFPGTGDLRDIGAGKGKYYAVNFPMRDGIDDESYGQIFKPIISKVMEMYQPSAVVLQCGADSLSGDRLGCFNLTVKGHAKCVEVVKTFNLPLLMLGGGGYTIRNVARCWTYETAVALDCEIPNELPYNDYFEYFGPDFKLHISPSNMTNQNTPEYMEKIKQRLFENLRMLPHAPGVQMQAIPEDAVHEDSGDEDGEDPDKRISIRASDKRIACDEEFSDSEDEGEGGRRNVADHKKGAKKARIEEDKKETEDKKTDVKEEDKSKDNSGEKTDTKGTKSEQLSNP
# Histone deacetylase 4 (Homo sapiens), sequence (P56524 whole entry): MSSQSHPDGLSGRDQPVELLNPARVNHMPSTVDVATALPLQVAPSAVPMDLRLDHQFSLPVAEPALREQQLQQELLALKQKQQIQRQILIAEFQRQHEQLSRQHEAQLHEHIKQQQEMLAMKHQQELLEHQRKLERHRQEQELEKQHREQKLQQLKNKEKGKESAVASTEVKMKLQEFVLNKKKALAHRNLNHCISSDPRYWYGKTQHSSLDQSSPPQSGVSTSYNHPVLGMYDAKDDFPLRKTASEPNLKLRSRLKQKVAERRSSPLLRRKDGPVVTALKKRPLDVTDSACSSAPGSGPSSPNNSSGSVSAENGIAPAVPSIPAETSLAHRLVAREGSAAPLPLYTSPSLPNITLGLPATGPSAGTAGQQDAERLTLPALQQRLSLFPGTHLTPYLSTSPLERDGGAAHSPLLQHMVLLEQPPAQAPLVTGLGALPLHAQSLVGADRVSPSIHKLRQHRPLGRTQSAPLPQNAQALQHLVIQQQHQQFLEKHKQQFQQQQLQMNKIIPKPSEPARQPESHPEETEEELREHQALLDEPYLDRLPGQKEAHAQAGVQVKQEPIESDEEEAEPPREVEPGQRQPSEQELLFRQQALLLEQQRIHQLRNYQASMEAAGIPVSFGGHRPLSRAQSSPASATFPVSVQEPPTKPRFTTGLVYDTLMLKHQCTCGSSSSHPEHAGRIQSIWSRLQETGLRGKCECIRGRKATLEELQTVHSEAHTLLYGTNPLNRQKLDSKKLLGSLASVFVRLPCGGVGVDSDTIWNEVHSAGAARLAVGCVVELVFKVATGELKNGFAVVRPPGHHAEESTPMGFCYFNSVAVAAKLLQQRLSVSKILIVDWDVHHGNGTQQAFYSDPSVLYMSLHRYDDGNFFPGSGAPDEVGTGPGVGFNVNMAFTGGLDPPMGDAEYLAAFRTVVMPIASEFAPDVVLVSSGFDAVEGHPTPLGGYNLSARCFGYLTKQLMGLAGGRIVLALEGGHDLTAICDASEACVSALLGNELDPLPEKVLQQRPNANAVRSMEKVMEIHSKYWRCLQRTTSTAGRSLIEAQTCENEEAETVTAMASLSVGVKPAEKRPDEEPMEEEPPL
# Histone deacetylase 5 (Homo sapiens), sequence (Q9UQL6 whole entry): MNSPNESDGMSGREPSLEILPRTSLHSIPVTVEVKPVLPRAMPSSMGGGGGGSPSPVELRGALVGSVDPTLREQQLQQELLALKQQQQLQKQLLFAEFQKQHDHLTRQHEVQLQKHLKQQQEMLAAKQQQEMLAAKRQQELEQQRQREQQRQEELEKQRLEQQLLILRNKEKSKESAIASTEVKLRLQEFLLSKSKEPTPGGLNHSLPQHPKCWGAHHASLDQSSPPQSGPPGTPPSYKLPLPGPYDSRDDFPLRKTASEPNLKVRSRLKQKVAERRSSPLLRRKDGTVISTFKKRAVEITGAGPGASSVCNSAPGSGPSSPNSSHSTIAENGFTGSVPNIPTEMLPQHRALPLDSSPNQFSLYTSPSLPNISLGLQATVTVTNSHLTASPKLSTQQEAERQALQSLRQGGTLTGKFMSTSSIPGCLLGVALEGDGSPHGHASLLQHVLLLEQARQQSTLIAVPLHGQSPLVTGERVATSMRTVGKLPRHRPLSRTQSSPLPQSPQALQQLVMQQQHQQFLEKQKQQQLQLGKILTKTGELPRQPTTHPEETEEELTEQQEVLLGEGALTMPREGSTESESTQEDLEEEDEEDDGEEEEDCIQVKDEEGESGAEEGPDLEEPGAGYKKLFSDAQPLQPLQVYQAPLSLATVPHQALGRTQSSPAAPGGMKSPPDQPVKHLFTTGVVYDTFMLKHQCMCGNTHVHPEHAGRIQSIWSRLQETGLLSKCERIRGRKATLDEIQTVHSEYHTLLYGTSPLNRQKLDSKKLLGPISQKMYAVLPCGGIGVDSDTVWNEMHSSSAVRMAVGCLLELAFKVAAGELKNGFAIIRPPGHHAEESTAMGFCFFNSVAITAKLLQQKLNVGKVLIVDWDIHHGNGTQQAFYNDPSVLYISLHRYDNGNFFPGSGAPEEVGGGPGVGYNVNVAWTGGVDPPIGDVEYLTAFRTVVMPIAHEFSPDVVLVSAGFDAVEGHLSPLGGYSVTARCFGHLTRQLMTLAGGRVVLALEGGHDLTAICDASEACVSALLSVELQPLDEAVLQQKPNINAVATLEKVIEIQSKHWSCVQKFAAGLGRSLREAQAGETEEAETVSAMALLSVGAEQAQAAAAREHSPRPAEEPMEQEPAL
# Histone deacetylase 3 (Homo sapiens), sequence (O15379 whole entry): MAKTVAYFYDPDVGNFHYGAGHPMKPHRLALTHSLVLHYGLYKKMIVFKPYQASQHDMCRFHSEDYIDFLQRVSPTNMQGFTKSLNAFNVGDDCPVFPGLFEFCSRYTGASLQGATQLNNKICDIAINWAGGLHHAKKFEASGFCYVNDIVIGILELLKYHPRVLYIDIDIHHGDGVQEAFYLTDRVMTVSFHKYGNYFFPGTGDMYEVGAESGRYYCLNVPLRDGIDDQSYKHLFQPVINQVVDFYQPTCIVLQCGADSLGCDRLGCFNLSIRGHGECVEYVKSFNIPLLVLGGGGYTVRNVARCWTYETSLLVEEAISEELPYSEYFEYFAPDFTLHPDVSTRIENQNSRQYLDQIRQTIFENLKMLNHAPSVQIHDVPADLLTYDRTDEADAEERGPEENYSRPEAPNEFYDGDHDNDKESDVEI
Structure (SMILES),IC50 [1],Activity [2],IC50 (Histone deacetylase 1 [3]),Activity [4],Activity [5],Activity [6],Activity [7],Activity [8],IC50 (Histone deacetylase 1 [9]),EC50 (T-24 [10]),EC50 (T-24 [11])
NS(=O)(=O)NCCCCCC(=O)Nc1cccc2cccnc12,0.39 µM,inactive,> 10 µM,,,,,,,,
CN(CCCCCC(=O)Nc1cccc(-c2ccccc2)c1)S(N)(=O)=O,> 10 µM,,> 10 µM,inactive,inactive,inactive,inactive,inactive,,,
NS(=O)(=O)NC(=O)CCCCCC(=O)Nc1cccc(-c2ccccc2)c1,> 10 µM,,> 10 µM,inactive,inactive,inactive,inactive,inactive,,,
Nc1ccccc1NC(=O)CCCCCCC(=O)Nc1cccc(-c2ccccc2)c1,> 50 µM,,0.49 µM,,,,,,,,
CN(C)S(=O)(=O)NCCCCCC(=O)Nc1cccc(-c2ccccc2)c1,> 10 µM,,> 10 µM,inactive,inactive,inactive,inactive,inactive,,,
NS(=O)(=O)NCCCCCC(=O)Nc1ccccc1,1.5 µM,,> 10 µM,,,,,,,,
NS(=O)(=O)NCCCCCC(=O)Nc1ccc2ncccc2c1,0.49 µM,inactive,> 10 µM,,,,,,,,
NS(=O)(=O)NCCCCCC(=O)Nc1cnc2ccccc2c1,0.71 µM,inactive,> 10 µM,,,,,,,,
O=C(CCCCCCC(=O)Nc1cccc(-c2ccccc2)c1)NO,0.009 µM,,0.009 µM,,,,,,,,
NS(=O)(=O)OCCCCCC(=O)Nc1cccc(-c2ccccc2)c1,> 10 µM,,> 10 µM,inactive,inactive,inactive,inactive,inactive,,,
COc1cc(NC(=O)CCCCCNS(N)(=O)=O)c2ncccc2c1,0.44 µM,inactive,> 10 µM,,,,,,> 50 µM,1 µM,> 25 µM

# Second part, the molecule after the results:
IC50 [1],Activity [2],IC50 (Histone deacetylase 1 [3]),Activity [4],Activity [5],Activity [6],Activity [7],Activity [8],IC50 (Histone deacetylase 1 [9]),EC50 (T-24 [10]),EC50 (T-24 [11]),Structure (SMILES)
> 10 µM,,> 10 µM,inactive,inactive,inactive,inactive,inactive,,,,CNS(=O)(=O)NCCCCCC(=O)Nc1cccc(-c2ccccc2)c1
> 10 µM,,> 10 µM,inactive,inactive,inactive,inactive,inactive,,,,NS(=O)(=O)NCCCCCCC(=O)Nc1cccc(-c2ccccc2)c1
0.06 µM,,0.46 µM,,,,,,1.8 µM,0.2 µM,0.35 µM,COc1cc(NC(=O)[C@H](CCCCNS(N)(=O)=O)NC(=O)OCc2ccccc2)c2ncccc2c1
1.1 µM,,> 10 µM,inactive,inactive,inactive,inactive,inactive,,,,NS(=O)(=O)NCCCCCC(=O)Nc1cccc(-c2ccccc2)c1
0.9 µM,inactive,> 10 µM,,,,,,> 50 µM,3.5 µM,20 µM,NS(=O)(=O)NCCCCCC(=O)Nc1nc(-c2ccccc2)cs1
0.18 µM,,0.16 µM,,,,,,2.3 µM,0.6 µM,0.7 µM,NS(=O)(=O)NCCCC[C@H](NC(=O)OCc1ccccc1)C(=O)Nc1nc(-c2ccccc2)cs1
> 10 µM,,> 10 µM,inactive,inactive,inactive,inactive,inactive,,,,NS(=O)(=O)NCCCCC(=O)Nc1cccc(-c2ccccc2)c1
> 10 µM,,> 10 µM,inactive,inactive,inactive,inactive,inactive,,,,CC(=O)NS(=O)(=O)NCCCCCC(=O)Nc1cccc(-c2ccccc2)c1
